{"source": "patent US12649980B2", "about": "“Three-dimensional surface for protein and small molecule microarrays” (The Johns Hopkins University, priority 2019, dated 2026)", "key": {"GLUT1": {"target": "T1, GLUT1 (Homo sapiens, UniProt P11166)", "T1 construct": "The full-length human SLC2A1, SLC2A3, and SLC2A4 genes were PCR amplified and inserted into pLenti6M vector 2; expressed in transfected cells", "T1 sequence (P11166 1-492)": "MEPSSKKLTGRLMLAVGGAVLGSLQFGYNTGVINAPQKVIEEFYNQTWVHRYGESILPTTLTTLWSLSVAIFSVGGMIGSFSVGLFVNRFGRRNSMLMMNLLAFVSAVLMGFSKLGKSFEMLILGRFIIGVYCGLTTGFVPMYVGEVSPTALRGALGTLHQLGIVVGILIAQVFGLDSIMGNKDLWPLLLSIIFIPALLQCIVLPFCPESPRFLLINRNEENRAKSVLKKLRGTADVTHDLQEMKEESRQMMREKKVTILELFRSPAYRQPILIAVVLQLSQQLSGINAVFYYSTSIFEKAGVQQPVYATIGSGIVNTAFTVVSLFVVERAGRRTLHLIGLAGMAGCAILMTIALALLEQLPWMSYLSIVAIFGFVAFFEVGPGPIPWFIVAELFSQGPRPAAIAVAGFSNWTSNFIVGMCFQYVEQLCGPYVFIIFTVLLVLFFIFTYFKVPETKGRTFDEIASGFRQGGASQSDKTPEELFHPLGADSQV", "experiment": "rapafucin 3D microarray screen with GLUT1-containing cell lysate", "type": "binding", "settings": "signal-to-background ratio, 3D surface, lysate of GLUT1-overexpressing HEK293T; hit if SBR > 3", "text": "Once stock solutions of the rapafucin library were arrayed on the 2D or 3D surface and most of solvent carrier was evaporated, the crosslinking reaction was initiated by irradiating the surfaces with 365-nm wavelength UV light. Kawatani and Osada, Medchemcomm 2014, 5, 277-287. […] To screen for GLUT1-interacting rapafucins, GLUT1 was stably overexpressed in HEK293T cells and generated cell lysates containing detergent-solubilized recombinant GLUT1 (FIG. 10). The GLUT1-containing cell lysate was then incubated on both 2D and 3D rapafucin microarrays. After washing the slides to remove unbound proteins, the bound GLUT1 protein was detected with anti-GLUT1 antibodies, followed by visualization with Cy5-labeled secondary antibodies using a microarray scanner. Rapafucins were scored as positive hits when the corresponding SBR was greater than 3. Based on this criterion, a total of 17 rapafucin hits and one positive control BAY-876, a specific GLUT1 inhibitor, Siebeneicher et al., ChemMedChem 2016, 11, 2261-2271, were identified on the 3D rapafucin microarray. In contrast, only one hit (WL13-F11, also among the 17 hits identified from the 3D rapafucin microarray) was identified on the 2D rapafucin microarray (Table 1, FIG. 11).\nThe amine substrates (Arrayit, SMM) were immerged in a mixture of 2-bromoisobutyryl bromide (BIBB, 0.1 mM, as initiator) and propionyl bromide (10 mM, as horizontal spacer) with triethylamine (15 mM) in DCM for 4 hours. A degassed polymerization reaction mixture, containing copper (II) chloride dihydrate (CuCl2, 4 mmol), 2,2′-bipyridine (2 mmol), 75 mmol monomers mixture of 2-(dimethylamino)ethyl methacrylate (DMAEMA) and poly(ethylene glycol) methacrylate (PEGMA Mn 360) in 500 mL Milli-Q/MeOH, was mixed with freshly made ascorbic acid (4 mmol). The mixture was applied to 50 slides for 6 hours under the argon atmosphere for the surface-initiated polymerization. A gradient ratio of PEGMA and DMAEMA was set, including 10:0, 8:2, 5:5, 2:8 and 0:10 for an optimization purpose. The terminals of the brushes were further functionalized by N,N′-disuccinimidyl carbonate (DSC, 10 mM) and 4-dimethylaminopyridine (DMAP,10 mM) in DMF overnight to form succinimidyl carbonate intermediate, and, successively, diazirine linker 1 (10 mM) and N,Ndiisopropylethylamine (DIPEA, 50 mM) in DMF for 2 hours to couple the photoaffinity linker in dark at room temperature. At the end, the substrates were immerged in a 50 mM ethanolamine in DMF to block the residual carboxylic moiety. The slides were thoroughly washed by DMF, EtOH and DCM and dried in a fuming cupboard and ready for spotting.\n10 mM of rapafucins in DMSO from the library were spotted onto the slides with a high-precision microarrayer (Nanoprint, Arrayit, CA) for a desired pattern in dark, which was loaded with 16 100-μm diameter micro-spotting pins. The pin heads were thoroughly washed and sonicated in ethanol and dried for 4 times under a compassed air between each sample loading. After overnight evaporation, the slides were exposed to 365-nm wavelength UV irradiation for 4 J/cm^2 by CL-1000L UV crosslinker (UVP, CA) for rapafucins covalent immobilization. The slides were ultrasonic cleaned successively in DCM, MeOH and Milli-Q water and stored in a −20° C. freezer.\nIn the optimization experiments, the slides were incubated with 50 nM purified recombinant FKBP12 for 1 hour, while in the GLUT1 screening, 10 mg/mL of cell lysate containing DDM-solubilized GLUT1 from GLUT1 overexpressed HEK293T was incubated for 1 hour. Successively, primary antibody and CY5 labeled secondary antibody were added for 1 hour. The chips were washed in buffer A for 5 mins 3 times after the sample and antibodies incubation. After centrifugation, the dried chips were scanned by a microarray scanner (Genepix, US) at 635-nm wavelength. The final result was analyzed by GenePix software."}, "MCF-7": {"test_system": "MCF-7", "experiment": "Alamar blue cell proliferation assay, MCF-7", "type": "cell-based, human", "settings": "MCF-7, 72 h; read-out: IC50 Assay B (Alamar blue cell proliferation)", "protocol": "The effects of RgA on cell growth, survival, and cell death was then determined. […] Treatment with 5 μM of RgA caused an increase in G1 phase by approximately 23% in comparison to control and approximately 7% and 17% decreases in cells in S and G2/M phases, respectively. The induction in G1 phase cell cycle arrest by RgA is dose-dependent (FIG. 5A, FIG. 16). […] Jones and Thompson, Genes Dev. 2009, 23, 537-548. […] The IC50 values of RgA against several human cancer cell lines also was determined using the alamar blue cell proliferation assay.\nCells were seeded into a 96-well plate (Costar) in 180 μL culture media. After an overnight recovery, drugs were added and incubated for 72 h. After drug incubation, cells were added with 20 μL of alamar blue reagent and the plates were incubated at 37° C. for 6 h before reading the fluorescence (544 nm Ex/590 nm Em) with a plate reader. GraphPad Prism (v4.03) software was used to determine IC50 values using a four parameter logistic regression."}, "FKBP12": {"target": "FKBP12 (Homo sapiens, UniProt P62942)", "sequence (P62942 whole entry, species assumed)": "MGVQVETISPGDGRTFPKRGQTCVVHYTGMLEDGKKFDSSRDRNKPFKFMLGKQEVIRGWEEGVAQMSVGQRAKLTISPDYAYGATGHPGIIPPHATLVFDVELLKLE", "experiment": "peptidyl prolyl cis-trans isomerase activity inhibition, FKBP12", "type": "biochemical", "settings": "inhibition of prolyl isomerase activity"}}}
{"smiles": "CCC(C)C1C(=O)NCC(=O)N(C)CCC=CC(=O)OCC(C)(C)C(=O)C(=O)N2CCCCC2C(=O)OC(CCc2ccc(OC)c(OC)c2)c2cccc(c2)NC(=O)CCC(=O)N(C)C(CC(C)C)C(=O)NC(Cc2ccccc2)C(=O)N1C", "note": "(stereo not drawn) [JW11-D2, Rapaglutin A]", "values": [{"measurement": "3D SBR", "setting": "GLUT1", "result": "6.5 ± 1.4"}, {"measurement": "IC50", "setting": "MCF-7", "result": 0.0873, "unit": "µM"}, {"measurement": "Ki", "setting": "FKBP12", "result": 0.0015, "unit": "µM"}]}
